Measurements: patent US20240166687A1, “REGULATORY T CELL-INDUCING PEPTIDE AND COMPOSITION INCLUDING SAME FOR PREVENTING OR TREATING AUTOIMMUNE DISEASE” (IUCF-HYU (INDUSTRY-UNIVERSITY COOPERATION FOUNDATION …, priority 2021, published 2024)
Entries after “also recorded” stand apart in the source; their conditions may differ.

B1: KIKKVKKKGRKGSKIKKVKKKGRKGGAMLAAASPLTTGVYVKMPPTEPECEKQFQPYFIPIN (peptide)
chain: KIKKVKKKGRKGSKIKKVKKKGRKGGAMLAAASPLTTGVYVKMPPTEPECEKQFQPYFIPIN
notes: dNP2-ctCTLA-4 variant, K motif residues replaced with alanine

Tests used:
[1] = system: Th17 cells differentiated from splenocytes isolated from mouse; assay: Analysis of effect under Th17 differentiation conditions (flow cytometry of IL-17A and Foxp3); format: cell-based; settings: sample 2 μM; for effect of suppressing immune response (decrease of IL-17 and increase of Foxp3): flow cytometry 4 days later, comparator as named in the value (Th17/PBS control, K1, AP-K2)
Text: Th17 cells are a subset of CD4 T cells. The Th17 cells are known to secrete a cytokine known as IL-17 and cause inflammation. This is the major cause of autoimmune disease. And, Treg cells (regulatory T cells) are known to suppress and regulate inflammation by expressing the transcription factor called Foxp3. Accordingly, since it is thought that the effect of preventing and treating autoimmune disease may be achieved by regulating inflammation by inhibiting Th17 cells (IL-17) and increasing Treg (Foxp3) cells, the effect of the peptides of the present disclosure was investigated.
Undifferentiated CD4 T cells (naive CD4 T cells) were isolated from splenocytes of 6- to 8-week-old C57BL/6 mice using a mouse undifferentiated CD4+ T cell (naive CD4 T cell) isolation kit (Miltenyi Biotec, Auburn, CA, USA) according to the manufacturer's protocols. For RNAseq, the undifferentiated CD4 T cells (naive CD4 T cells) from the Foxp3-GFP mice were purified, differentiated into Th17 cells and sorted into Foxp3^+ and Foxp3^− populations using a cell sorter (FACS Aria cell sorter BD Biosciences, Franklin Lakes, NJ, USA). The purified undifferentiated CD4 T cells (naive CD4 T cells) were activated with plate-bound anti-CD3 (2 or 5 μg/mL, 553057; BD Pharmingen, La Jolla, CA) and anti-CD28 (2 or 5 μg/mL, 553294; BD Pharmingen, La Jolla, CA) antibodies and differentiated by treating with the following cytokine cocktails in a 96-well plate for 3 or 4 days: Th0; recombinant human TGF-β(R&D Systems) 0.25 ng/mL. Th1; anti-IL-4 (11B11; 16-7041-85; eBioscience) 5 μg/mL, IL-2 (212-12; Peprotech, Rocky Hill, NJ) 50 U/mL, recombinant murine IL-12 (212-12; Peprotech) 2 ng/mL, recombinant human TGF-β (R&D Systems) for Th1 0.25 ng/mL. Th17; anti-IFN-γ (XMG1.2; 16-7311-85; eBioscience) 5 μg/mL, anti-IL-4 (11B11; 16-7041-85; eBioscience) 5 μg/mL, recombinant murine TGF-β (7666-MB, R&D Systems, Minneapolis, MN) 2 ng/mL, IL-6 (216-16; Peprotech) 30 ng/mL, IL-23 (1887-ML-101; R&D Systems) 20 ng/mL, IL-1β (401-ML-010; R&D Systems) 20 ng/mL, and IL-2 (Peprotech) 50 U/mL. Treg; IL-2 (Peprotech) 50 U/mL and TGF-β (R&D Systems) 0.5 ng/mL.
The cells were cotreated with the cytokine cocktails and the samples (2 μM). 4 days later, they were analyzed by flow cytometry using IL-17 and Foxp3 fluorescent antibodies. In some experiments, 5 μM PKC-η pseudosubstrate inhibitor (sc-3096; Santa Cruz) or 5 μM ERK inhibitor (UO126, 662005; Sigma) were also added.
For flow cytometric analysis of living cells only, dead cells were excluded using the Zombie Aqua™ fixable viability kit (Biolegend) before staining with antibodies at room temperature for 10 minutes. After washing, surface proteins of the differentiated Th1, Th17 and Treg cells were stained with monoclonal antibodies at 4° C. for 15 minutes. To determine intracellular cytokine levels, the cells were restimulated with a cell stimulation cocktail (plus protein transport inhibitors) (ThermoFisher) at 37° C. for 4 hours and then stained with surface marker antibodies. The cells were then fixed, permeabilized using a Foxp3/transcription factor staining buffer set (eBioscience) and stained with anti-mouse IFN-γ, anti-mouse IL-17 and anti-mouse Foxp3. The cells were analyzed using a FACS Canto II flow cytometer and the FlowJo software version 10.7.

[2] = system: multiple sclerosis animal model; assay: Analysis of efficiency in multiple sclerosis (MS) animal model (MOG35-55/CFA + PTX); format: in vivo, C57BL/6 mice; settings: for clinical symptoms (clinical score): 100 μg (5 mg/kg) intraperitoneally once a day from day 7 after PTX; for clinical symptoms (clinical score) / number of Treg cells (spinal cord) / number of infiltrated lymphocytes in the spinal cord: comparator as named in the value
Experimental: 8-week-old female C57BL/6 mice were purchased from Orient Bio (Daejeon, Korea). All animal experiments were conducted in compliance with the animal experiment operation regulations of the Institutional Animal Care and Use Committee of Hanyang University. The mice were acclimatized for 2 weeks before the experiment. The mice were raised in a breeding room maintained at temperature 22±2° C. and 40-60% humidity with free access to feed. The light and dark cycles were adjusted at 12-hour intervals. Multiple sclerosis was induced by subcutaneous immunization using a MOG35-55/CFA emulsion PTX kit (Hooke Labs, Lawrence, MA, USA) according to the manufacturer's protocol. The mice were anesthetized with isoflurane and MOG35-55/CFA was subcutaneously injected bilaterally, followed by intraperitoneal injection of PTX (pertussis toxin) 2 hours and 24 hours later. The mice were randomly assigned to different groups after MOG immunization. Because paralysis due to immune response begins on day 7 after the injection of PTX, 100 μg (5 mg/kg) of the samples according to the present disclosure were intraperitoneally injected to the groups once a day from day 7. Each group was monitored every day after inducing multiple sclerosis and clinical symptoms were recorded. The clinical symptoms were evaluated based on the scoring system described in Table 2. The higher clinical scores indicate severer symptoms. The mice were euthanized at the end of the experiments and lymphocytes were isolated from the spinal cords. The isolated spinal cords were treated at 37° C. with 1 mg/mL of DNase 1 (10104159001; Sigma-Aldrich) and 1 mg/mL of collagenase D (11088866001; Sigma-Aldrich) and incubated at 80 rpm on a shaker for 40 minutes. After the enzyme treatment, 500 mM EDTA was added and lymphocytes were isolated by Percoll (GE Healthcare, Little Chalfont, UK) density-gradient centrifugation. The isolated infiltrated lymphocytes were restimulated with a cell stimulation cocktail (plus protein transport inhibitors) (ThermoFisher) at 37° C. for 4 hours and stained with anti-mouse CD4. The cells were fixed, permeabilized using a Foxp3/transcription factor staining buffer set (eBioscience) and stained with anti-mouse IFN-γ, anti-mouse IL-17 or anti-mouse Foxp3. The cells were analyzed using a FACS Canto flow cytometer and the FlowJo software version 10.7.1. For histological analysis, paraffin blocks of the spinal cord tissues were deparaffinized and treated with luxol fast blue. For combination staining, hematoxylin and eosin were used (Dako). The cells infiltrated in the white matter region of the spinal cord tissues were counted using the Image J software version 2.0.0. The increased number of Th1 and Th17 immune cells in the spinal cord means more severe multiple sclerosis, and the increased number of Treg cells means that the function of preventing or treating autoimmune disease such as multiple sclerosis is improved as the tolerance to self-antigens is maintained and the excessive response by the immune system is prevented.

[3] = 100 μg intraperitoneally once a day from day 7

Molecule | effect of inhibiting the IL-17 cytokine compared to the dNP2-ctCTLA-4 group ([1]; 4 days) | reduction of IL-17 as compared to the control group ([1]; 4 days, CD4+IL-17A+ T cells) | increase of Foxp3 as compared to the control group ([1]; 4 days, CD4+foxp3+ T cells) [times] | effect of suppressing immune response (decrease of IL-17 and increase of Foxp3) [1] | clinical symptoms (clinical score) [2] | number of regulatory T cells (Treg) compared to dNP2-ctCTLA-4 [2, 3] | number of Treg cells (spinal cord) [2, 3] | number of infiltrated lymphocytes in the spinal cord [2, 3] | number of infiltrated lymphocytes in the spinal cord, ranking among the groups ([2]; 100 μg intraperitoneally once a day from day 7 to day 13, groups K2, AP-K2, Myr-K2, Myr-K3) | expression of IL-17 T cells, IFN-γ T cells and Foxp3 T cells compared to PBS ([2]; 100 μg intraperitoneally once a day from day 7 to day 13, spinal cord lymphocytes) | function of inhibiting myelin damage (histological analysis of the spinal cord) ([2]; 100 μg intraperitoneally once a day from day 7 to day 14, luxol fast blue, H&E)
RRRWCKRRRGGKMLKKRSKMLKKRS (AP-K2) | remarkably superior effect of inhibiting the IL-17 cytokine as compared to the dNP2-ctCTLA-4 group | reduced IL-17 to half or less | ≥ 5 | significantly better effect of suppressing immune response than the PBS (control group) | significantly improved results for clinical symptoms as compared to the PBS (control group); also recorded: significantly improved result for clinical symptoms as compared to the PBS group | an increase comparable to that of dNP2-ctCTLA-4 | significantly number of regulatory T cells (Treg) as compared to the PBS (control group) | significantly smaller number of infiltrated lymphocytes in the spinal cord as compared to the PBS (control group), dNP2 and AP groups; also recorded: significantly smaller number of infiltrated lymphocytes in the spinal cord than the PBS (control group) | most superior effects | inhibited expression of II-17 T cells and IFN-γ T cells and increase of Foxp3 T cells as compared to the PBS (control group) | 
KIKKVKKKGRKGSKIKKVKKKGRKKMLKKRS (dNP2-K1) [deleted variant of dNP2-ctCTLA-4 with only the K motif] |  |  |  | exhibited the activity of inhibiting immune response |  |  |  | significantly smaller number of infiltrated lymphocytes in the spinal cord as compared to the TAT-ctCTLA-4 group and the PBS group |  |  | 
RRRWCKRRRGGKMLKKRSKMLKKRSKMLKKRS (AP-K3) | remarkably superior effect of inhibiting the IL-17 cytokine as compared to the dNP2-ctCTLA-4 group |  |  | significantly better effect of suppressing immune response than the PBS (control group) | significantly improved results for clinical symptoms as compared to the PBS (control group) |  | significantly number of regulatory T cells (Treg) as compared to the PBS (control group) | significantly smaller number of infiltrated lymphocytes in the spinal cord as compared to the PBS (control group), dNP2 and AP groups |  |  | 
B1 |  |  |  | the function of the decrease of IL-17 and the increase of Foxp3 was lost | significantly lower clinical symptoms as compared to the PBS group |  | smallest number of Treg cells | significantly larger number of infiltrated lymphocytes in the spinal cord as compared to the PBS group |  |  | the function of inhibiting myelin damage was lost
